In brackets after ≈: the same amount, converted by molar mass.
Each molecule was assayed on P388 (assay: Cytotoxicity against mouse P388 cells).
Assay type: functional, cell-based

Point of comparison: `C=C(CC[C@@H](C)[C@H]1CC[C@H]2C3=C[C@@H](OC(C)=O)[C@@]4(O)C[C@@H](OC(C)=O)CC[C@]4(C)[C@@]3(O)[C@H](OC(C)=O)C[C@]12C)C(C)C`, IC50 6.5 µg/mL (≈ 11 µM). Against it:
- C=C(CC[C@@H](C)[C@H]1CC[C@H]2C3=C[C@H](OC(C)=O)[C@@]4(O)C[C@@H](OC(C)=O)CC[C@]4(C)[C@@]3(O)[C@H](OC(C)=O)C[C@]12C)C(C)C — within 1.5-fold, 4.78 µg/mL (≈ 8.12 µM)
- C=C(CC[C@@H](C)[C@H]1CC[C@H]2C3=C[C@@H](OC(C)=O)[C@@]4(O)C[C@@H](OC(C)=O)CC[C@]4(C)[C@H]3CC[C@]12C)C(C)C — 4.5-fold lower, 1.46 µg/mL (≈ 2.84 µM)

Source: ChEMBL document CHEMBL1158935, “New Polyhydroxy Sterols, Dysidamides, and a Dideoxyhexose from the Sponge Dysidea herbacea” (J Nat Prod, 1991)
